# According to patent US20220125877A1, “METHOD FOR TREATING COLORECTAL CANCER” (SUN YAT-SEN UNIVERSITY, priority 2019, published 2022):
# Tests used:
# LoVo cells = test: Azacitidine treatment: MATE1 expression and anti-proliferation effect of metformin; type: cell-based, human; settings: FIGS. 16E-F
# [1] = test system: KRAS (G13D) mutation SW48 cell line; test: as above; type: cell-based, human; settings: FIGS. 16E-F
structure (smiles),measurement,setting,value
Nc1ncn([C@@H]2O[C@H](CO)[C@@H](O)[C@H]2O)c(=O)n1 [azacitidine],expression of MATE1,LoVo cells,up-regulate the expression of MATE1
same,effect on the anti-tumor proliferation effect of metformin,LoVo cells; with metformin,inhibiting the anti-tumor proliferation effect of metformin
same,expression of MATE1,[1],up-regulate the expression of MATE1
same,effect on the anti-tumor proliferation effect of metformin,[1]; with metformin,inhibiting the anti-tumor proliferation effect of metformin
